Results from PMC7336994, “Cytotoxic compounds from the leaves and stems of the endemic Thai plant Mitrephora sirikitiae” (Pharmaceutical Biology, 2020).
Like-named read-outs stand apart in the source and are kept apart here.

What was measured:
ASK (rat glioma) = experiment: SRB cytotoxicity assay, ASK cells; assay type: cell-based; conditions: 72 h, read-out: IC50 ASK
Experimental: (§1) The methanol extracts and the isolated compounds were evaluated for their cytotoxic activities against several cell lines, including murine lymphocytic leukaemia (P-388), human oral epidermoid carcinoma (KB), human colon carcinoma (Col-2 and HT-29), human breast cancer (MCF-7), human lung carcinoma (Lu-1 and A549), rat glioma (ASK), and noncancerous human embryonic kidney cell (HEK-293) by sulforhodamine B (SRB) assay in 96-well microtiter plates (Skehan et al. [1990]). This method measures the cellular protein content of cultures in 96-well microtiter plates. The cell lines were seeded into 96-well microtiter plates and treated with the test compounds at concentrations of 0.16–20 µg/mL for 72 h, except for the P-388 cells, which were treated for 48 h. Then the cell cultures were fixed with 20% trichloroacetic acid (Merck) and stained with 0.4% SRB (Sigma-Aldrich) dissolved in 1% acetic acid (Merck) for 1 h. The cellular-protein-bound dye was extracted with 10 mM unbuffered Trisbase solution (pH 10.5) (Sigma-Aldrich) for the determination of optical density at 510 nm with a microtiter plate reader (Thermo Scientific™ Multiskan™ GO Microplate Spectrophotometer). The cytotoxic potency was expressed as median inhibition concentrations (IC50), the concentration that inhibits 50% of cell viability (µg/mL and µM). The IC50 values were determined from the nonlinear regression curve fit in GraphPad Prism software (version 5). Ellipticine (Sigma-Aldrich), a cytotoxic plant alkaloid causing topoisomerase II inhibition and DNA intercalation, was used as a positive control.

[1] = test system: A549 (human lung carcinoma); experiment: SRB cytotoxicity assay, A549 cells; assay type: cell-based; conditions: read-out: IC50 A549
Experimental: as §1

[2] = test system: KB (human oral epidermoid carcinoma); experiment: SRB cytotoxicity assay, KB cells; assay type: cell-based; conditions: 72 h, read-out: IC50 KB
Experimental: as §1

[3] = test system: HT-29 (human colon carcinoma); experiment: SRB cytotoxicity assay, HT-29 cells; assay type: cell-based; conditions: read-out: IC50 HT-29
Experimental: as §1

[4] = test system: Hek-293 (noncancerous human embryonic kidney cell); experiment: SRB cytotoxicity assay, Hek-293 cells; assay type: cell-based; conditions: read-out: IC50 Hek-293
Experimental: as §1

[5] = test system: MCF-7 (human breast cancer); experiment: SRB cytotoxicity assay, MCF-7 cells; assay type: cell-based; conditions: read-out: IC50 MCF-7
Experimental: as §1

[6] = test system: P-388, KB, HT-29, MCF-7, A549, ASK and Hek-293 cells; experiment: SRB cytotoxicity assay, panel of tested cell lines (summary statements); assay type: cell-based
Experimental: as §1

[7] = test system: P-388 (murine lymphocytic leukaemia); experiment: SRB cytotoxicity assay, P-388 cells; assay type: cell-based; conditions: Mus musculus, read-out: IC50 P-388
Experimental: as §1

[8] = A549, SRB assay, 0.16–20 µg/mL, 72 h
[9] = HT-29, SRB assay, 0.16–20 µg/mL, 72 h
[10] = Homo sapiens, HEK293, 72 h, SRB assay, non-cancerous cells, 0.16–20 µg/mL, 72 h
[11] = MCF7, SRB assay, 0.16–20 µg/mL, 72 h
[12] = read-out: IC50 values, range against all tested cell lines
[13] = P388, SRB assay, 0.16–20 µg/mL, 48 h
[14] = SRB assay, non-cancerous cells, 0.16–20 µg/mL, 72 h
[15] = read-out: IC50 values, range for some of the tested cells

SMILES	IC50 (ASK (rat glioma); SRB assay, 0.16–20 µg/mL) [µM]	IC50 [1, 8] [µM]	IC50 ([2]; SRB assay, 0.16–20 µg/mL) [µM]	IC50 [3, 9] [µM]	IC50 [4, 10] [µM]	IC50 [5, 11] [µM]	IC50 [6, 12] [µM]	IC50 [7, 13] [µM]	IC50 (ASK (rat glioma)) [µM]	IC50 ([1]; A549, 72 h) [µM]	IC50 [2] [µM]	IC50 ([3]; HT-29, 72 h) [µM]	IC50 ([4]; Homo sapiens, HEK293, 72 h) [µM]	IC50 ([5]; MCF7, 72 h) [µM]	IC50 ([7]; P388, 48 h) [µM]	IC50 [4, 14] [µM]	IC50 ([6]; P-338, HT-29, MCF-7 and A549, read-out: IC50 values, range over four tested cell lines) [µM]	IC50 [6, 15] [µM]	melting point [°C]
COc1cccc2c1-c1c3c(cc4ccnc(c14)C2=O)OCO3 [Compound 11, oxoputerine]	6.59 ± 0.43	7.21 ± 0.79	7.67 ± 0.3	7.28 ± 0.23	7.31 ± 0.07	7.05 ± 0.2	6.59 to 11	6.72 ± 0.36	–	–	–	–	–	–	–	–	–	–	–
COc1cc2c(cc1O)-c1cc3ccc(O)c(OC)c3c[n+]1CC2 [Compound 16, stepharanine]	–	–	–	–	–	–	–	–	> 20	> 20	> 20	> 20	> 20	> 20	> 20	–	–	–	–
CCC(CCC(C)C1CCC2C3CC=C4CC(OC5OC(CO)C(O)C(O)C5O)CCC4(C)C3CCC12C)C(C)C (stereo not drawn) [Compound 4, stigma-5-en-3-O-β-glucopyranoside]	> 20	> 20	> 20	> 20	> 20	> 20	–	> 20	–	–	–	–	–	–	–	–	–	–	–
COc1cccc2c1C(=O)c1c(C)cc(=O)[nH]c1C2=O [Compound 15, 6-methoxymarcanine A]	38.7 ± 1.12	12.3 ± 0.37	38.1 ± 0.52	10.15 ± 0.07	> 20	8.33 ± 0.63	–	9.55 ± 2.83	–	–	–	–	–	–	–	> 20	8.33 to 12.3	2.03 to 19.7	–
COc1ccc([C@@H]2Oc3c(OC)cc(CCCO)cc3[C@H]2CO)cc1OC [Compound 7, 3′,4-O-dimethylcedrusin]	> 20	10.3 ± 2.49	2.03 ± 0.11	19.7 ± 1.52	8.48 ± 4.04	3.77 ± 0.05	–	25.9 ± 2.99	–	–	–	–	–	–	–	–	–	2.03 to 19.7	–
CC1(C(=O)O)CCCC2(C)C1CC(O)C13CC4C(CC21)C4(C)C3 (stereo not drawn) [Compound 14, ciliaric acid]	> 20	> 20	> 20	> 20	> 20	> 20	–	> 20	–	–	–	–	–	–	–	–	–	–	–
COc1cc(OC)cc(C2OCC3C(c4ccc(OC)c(OC)c4)OCC23)c1 (stereo not drawn) [Compound 8, 2-(3,4-dimethoxyphenyl)-6-(3,5-dimethoxyphenyl)-3,7-dioxabicyclo[3.3.0]octane]	> 20	> 20	15.9 ± 0.36	> 20	16.5 ± 0.94	21.9 ± 2.96	–	> 20	–	–	–	–	–	–	–	–	–	–	–
COc1ccc(C(=O)[C@H]2CO[C@H](c3ccc(OC)c(OC)c3)[C@H]2CO)cc1OC [Compound 3, magnone A]	> 20	37.9 ± 5.42	20.6 ± 3.88	27.6 ± 3.53	> 20	4.4 ± 0.1	–	8.96 ± 0.7	–	–	–	–	–	–	–	23.2 ± 1.17	–	2.03 to 19.7	–
COc1cc(C2OCC(C(=O)c3ccc(OC)c(OC)c3)C2CO)ccc1O (stereo not drawn) [Compound 6, mitrephoran]	> 20	> 20	> 20	> 20	> 20	28.63 ± 0.15	–	> 20	–	–	–	–	–	–	–	–	–	–	146 to 148
COc1ccc(C2OCC3C(c4ccc(OC)c(OC)c4)OCC23)cc1OC (single isomer, unassigned; (-)) [Compound 1, (–)-epieudesmin]	> 20	> 20	> 20	> 20	> 20	> 20	–	> 20	–	–	–	–	–	–	–	–	–	–	–
COc1cc(/C=C/C(=O)NCCc2ccc(O)cc2)ccc1O [Compound 9, N-trans-feruloyltyramine]	> 20	> 20	> 20	> 20	> 20	> 20	–	> 20	–	–	–	–	–	–	–	–	–	–	–
O=C1c2ccccc2-c2c3c(cc4ccnc1c24)OCO3 [Compound 5, liriodenine]	–	–	–	–	–	–	6.59 to 11	–	10.7 ± 0.95	9.45 ± 0.18	11.02 ± 0.11	10.6 ± 0.36	8.07 ± 0.11	9.2 ± 0.25	9.6 ± 0.58	–	–	–	–
Cc1c2ccncc2c(C)c2c1[nH]c1ccccc12 [Ellipticine, reference compound]	2.56 ± 0.04	2.64 ± 0.24	2.36 ± 0.04	2.4 ± 0.04	2.68 ± 0.08	2.15 ± 0.08	–	2.03 ± 0.08	–	–	–	–	–	–	–	–	–	–	–
COc1cc2c(cc1OC)-c1c3c(cc4ccnc(c14)C2=O)OCO3 [Compound 10, dicentrinone]	–	–	–	–	–	–	–	–	> 20	> 20	> 20	> 20	> 20	36.9 ± 1.13	> 20	–	–	–	–
COc1cc(C2OCC3C(c4ccc(OC)c(OC)c4)OCC23)ccc1O (single isomer, unassigned; (-)) [Compound 2, (–)-phylligenin]	> 20	> 20	> 20	> 20	> 20	36.1 ± 1.02	–	32.5 ± 2.04	–	–	–	–	–	–	–	–	–	–	–
